Tested on: sclerostin mRNA in MLO-Y4 cells
Test: Sclerostin mRNA in MLO-Y4 cells, qRT-PCR
Format: cell-based, mouse
Settings: MLO-Y4, inhibitor pre-treatment 10 minutes, irisin 16 hours
Protocol: Cells were stained with Hoechst 33342 and Eth-D1, and analyzed to determine the percentage of cell death. *: p<0.05, ***: p<0.001 vs 0.3 mM H2O2 treated condition. […] MLO-Y4 cells were seeded and incubated until 60% cell density. The cells were incubated with Freestyle293 medium for 4 hours and were treated with indicated concentrations of irisin for 16 hours. Sclerostin mRNA level was analyzed by qRT-PCR. Cyclophilin was used as a control house-keeping gene.
MLO-Y4 cells were incubated in serum free medium for 3 hours followed by treatment of indicated concentrations of irisin for indicated time (FIG. 6A), or followed by treatment of 0 or 10 nM irisin in the presence of indicated integrin inhibitors or their control peptide for 16 hours (FIG. 6B). Sclerostin mRNA level was analyzed by qPCR.
Certain materials and methods were used to generate the results described herein. For example, the data shown in FIG. 1A resulted from MLO-Y4 (an osteocyte-like cell line) cells treated with the indicated concentration of irisin and hydrogen peroxide for 4 hours. Cells were stained with Hoechst 33342 (ThermoFisher Scientific, catalog number H3570) and Eth-D1 (ThermoFisher Scientific, catalog number E1169) and analyzed to determine the percentage of cell death using ImageJ. The data shown in FIG. 2D resulted from MLO-Y4 incubated in serum free medium (FreeStyle™ 293 expression medium, ThermoFisher Scientific, catalog number 12338018) for 4 hours followed by treatment of indicated concentrations of irisin for 10 minutes. Cells were lysed to detect the indicated protein level using immunoblot analysis (Cell Signaling Technology, catalog numbers 3283S, 3285S, 8467S, 3553S, 9198S, and 9104S; Abcam, catalog number ab49900-100ul). The data shown in FIG. 3 resulted from 3T3-F442A cells incubated in serum free medium for 4 hours followed by treatment of indicated concentrations of irisin for 10 minutes. Cells were lysed by RIPA buffer to detect the indicated protein level using immunoblot analysis. The data shown in FIG. 4 were generated from 100 nM flag-tagged irisin (Enzo life sciences, catalog number ADI-908-307-3010) incubated with 5 nM of the indicated 6 his-tag integrins (R & D Systems Inc., catalog numbers 7064-AB-025, 5668-A4-050, 5438-A9-050, 6357-AB-050, and 6579-AV-025) in the presence of RGDS peptide (R & D Systems Inc., catalog number 3498/10) or its control peptide (Enzo Life Sciences, catalog Number BML-P701-0005) followed by immunoprecipitation using 6 his-tag beads (ThermoFisher Scientific, catalog number R901-01). Co-precipitated irisin was analyzed by immunoblot analysis against flag tag (Sigma Aldrich, catalog number A8592). The data shown in FIGS. 5A and 5B were generated from MLO-Y4 cells treated and analyzed as in the experiments used to generate the data shown in FIG. 2D, except that pre-treatment of 100 nM RGDS (FIG. 5A) or echistatin (R & D Systems Inc., catalog number 3202/100U) (FIG. 5B) for 10 minutes was performed before irisin treatment. The data shown in FIGS. 6A and 6B were generated from MLO-Y4 cells incubated in serum free medium for 3 hours followed by treatment of indicated time of 10 nM irisin for 16 hours. RNAs were extracted from the cells and the sclerostin mRNA level was analyzed by qPCR (FIG. 6A) or treated and analyzed as in (FIG. 6A), except that pre-treatment of 10 μM RGDS, RGDyK (Selleck, catalog number S7844), or echistatin was performed for 10 minutes before irisin treatment. […] Sclerostin mRNA level was analyzed by qPCR (FIG. 7A). […]

Row | Molecule | effect of integrin inhibitor on irisin-induced sclerostin mRNA | effect of integrin inhibitor on irisin-induced sclerostin mRNA (listed as RGD peptide) | effect of integrin inhibitor on irisin-induced sclerostin mRNA (listed as RGDyK circular peptide)
1 | RGDS peptide: classical integrin competitive inhibitory peptide, commercially available form of the RGD peptide | sensitive | prevented sclerostin induction | –
2 | N=C(N)NCCC[C@@H]1NC(=O)[C@H](CCCCN)NC(=O)[C@@H](Cc2ccc(O)cc2)NC(=O)[C@H](CC(=O)O)NC(=O)CNC1=O [cyclo RGDyK] | prevented sclerostin induction | – | sensitive

Reference: patent US20210063414A1, “METHODS FOR PREVENTING AND/OR TREATING BONE LOSS CONDITIONS BY MODULATING IRISIN” (Dana-Farber Cancer Institute, Inc., priority 2018, published 2021)
